Test system: patients with irritable bowel syndrome (IBS)
Experiment: 48-week treatment of IBS patients: abdominal discomfort, abdominal bloating, severity of constipation (Example 3)
Assay type: in vivo, human
Set-up: key to Abdominal discomfort, Change from Baseline, Median / Abdominal bloating, Change from Baseline, Median: change on 0 (absent) to 4 (very severe) scale; key to Severity of Constipation, Change from Baseline, Median: change on 0 (very loose) to 4 (very hard) scale
Conditions: for Abdominal bloating, Mean ± SD / Abdominal bloating, Median / Abdominal discomfort, Mean ± SD / Abdominal discomfort, Median / Severity of Constipation, Mean ± SD / Severity of Constipation, Median: scale 0-4
Protocol: Patients with irritable bowel syndrome (IBS) were treated with 48 μg of Compound A (24 μg of Compound A b.i.d) for 48 weeks.
In this study, we evaluated the following parameters. • 1) Abdominal discomfort • 2) Abdominal bloating • 3) Severity of Constipation
Each of Abdominal discomfort and Abdominal bloating was evaluated on a scale of: 0 (absent), 1 (mild), 2 (moderate), 3 (severe) and 4 (very severe) in the patients. Severity of Constipation was evaluated on a scale of: 0 (very loose), 1: (loose), 2: (normal), 3 (hard), 4 (very hard) in the patients.

Compound: CCCCC(F)(F)C(=O)CCC1C(O)CC(=O)C1CCCCCCC(=O)O (stereo not shown) [Compound A, 13,14-dihydro-15-keto-16,16-difluoro-PGE1]
- Efficacy in IBS patients (Tables 2 to 4) (48 μg/day, 12 months treatment): effective
- Abdominal bloating, Mean ± SD (Baseline): 2.23 ± 0.927 (183)
- Abdominal bloating, Median (Baseline): 2.00
- Abdominal discomfort, Mean ± SD (Baseline): 1.95 ± 0.850 (183)
- Abdominal discomfort, Median (Baseline): 2.00
- Severity of Constipation, Mean ± SD (Baseline): 2.95 ± 0.751 (183)
- Severity of Constipation, Median (Baseline): 3.00
- Abdominal bloating, Change from Baseline, Mean ± SD (End of Treatment, 48 μg/day): −0.73 ± 1.075 (183)
- Abdominal bloating, Change from Baseline, Median (End of Treatment, 48 μg/day): −1.00
- Abdominal discomfort, Change from Baseline, Mean ± SD (End of Treatment, 48 μg/day): −0.66 ± 1.112 (183)
- Abdominal discomfort, Change from Baseline, Median (End of Treatment, 48 μg/day): −1.00
- Severity of Constipation, Change from Baseline, Mean ± SD (End of Treatment, 48 μg/day): −1.11 ± 1.148 (183)
- Severity of Constipation, Change from Baseline, Median (End of Treatment, 48 μg/day): −1.00
- Abdominal bloating, Mean ± SD (End of Treatment, 48 μg/day): 1.50 ± 1.005 (183)
- Abdominal bloating, Median (End of Treatment, 48 μg/day): 1.00
- Abdominal discomfort, Mean ± SD (End of Treatment, 48 μg/day): 1.28 ± 1.020 (183)
- Abdominal discomfort, Median (End of Treatment, 48 μg/day): 1.00
- Severity of Constipation, Mean ± SD (End of Treatment, 48 μg/day): 1.84 ± 1.120 (183)
- Severity of Constipation, Median (End of Treatment, 48 μg/day): 2.00
- Abdominal bloating, Change from Baseline, Mean ± SD (Follow-Up): −0.69 ± 1.109 (121)
- Abdominal bloating, Change from Baseline, Median (Follow-Up): −1.00
- Abdominal discomfort, Change from Baseline, Mean ± SD (Follow-Up): −0.55 ± 1.080 (121)
- Abdominal discomfort, Change from Baseline, Median (Follow-Up): −1.00
- Severity of Constipation, Change from Baseline, Mean ± SD (Follow-Up): −0.88 ± 1.122 (121)
- Severity of Constipation, Change from Baseline, Median (Follow-Up): −1.00
- Abdominal bloating, Mean ± SD (Follow-Up): 1.55 ± 0.957 (121)
- Abdominal bloating, Median (Follow-Up): 2.00
- Abdominal discomfort, Mean ± SD (Follow-Up): 1.40 ± 0.996 (121)
- Abdominal discomfort, Median (Follow-Up): 1.00
- Severity of Constipation, Mean ± SD (Follow-Up): 2.07 ± 0.946 (121)
- Severity of Constipation, Median (Follow-Up): 2.00
- Abdominal bloating, Change from Baseline, Mean ± SD (Week 12, 48 μg/day): −0.84 ± 1.045 (135)
- Abdominal bloating, Change from Baseline, Median (Week 12, 48 μg/day): −1.00
- Abdominal discomfort, Change from Baseline, Mean ± SD (Week 12, 48 μg/day): −0.79 ± 0.993 (135)
- Abdominal discomfort, Change from Baseline, Median (Week 12, 48 μg/day): −1.00
- Severity of Constipation, Change from Baseline, Mean ± SD (Week 12, 48 μg/day): −1.16 ± 1.099 (135)
- Severity of Constipation, Change from Baseline, Median (Week 12, 48 μg/day): −1.00
- Abdominal bloating, Mean ± SD (Week 12, 48 μg/day): 1.43 ± 0.919 (135)
- Abdominal bloating, Median (Week 12, 48 μg/day): 1.00
- Abdominal discomfort, Mean ± SD (Week 12, 48 μg/day): 1.16 ± 0.836 (135)
- Abdominal discomfort, Median (Week 12, 48 μg/day): 1.00
- Severity of Constipation, Mean ± SD (Week 12, 48 μg/day): 1.76 ± 1.003 (135)
- Severity of Constipation, Median (Week 12, 48 μg/day): 2.00
- Abdominal bloating, Change from Baseline, Mean ± SD (Week 18, 48 μg/day): −1.07 ± 1.068 (111)
- Abdominal bloating, Change from Baseline, Median (Week 18, 48 μg/day): −1.00
- Abdominal discomfort, Change from Baseline, Mean ± SD (Week 18, 48 μg/day): −0.97 ± 1.031 (111)
- Abdominal discomfort, Change from Baseline, Median (Week 18, 48 μg/day): −1.00
- Severity of Constipation, Change from Baseline, Mean ± SD (Week 18, 48 μg/day): −1.59 ± 1.148 (111)
- Severity of Constipation, Change from Baseline, Median (Week 18, 48 μg/day): −2.00
- Abdominal bloating, Mean ± SD (Week 18, 48 μg/day): 1.19 ± 0.837 (111)
- Abdominal bloating, Median (Week 18, 48 μg/day): 1.00
- Abdominal discomfort, Mean ± SD (Week 18, 48 μg/day): 0.98 ± 0.874 (111)
- Abdominal discomfort, Median (Week 18, 48 μg/day): 1.00
- Severity of Constipation, Mean ± SD (Week 18, 48 μg/day): 1.33 ± 0.985 (111)
- Severity of Constipation, Median (Week 18, 48 μg/day): 1.00
- Abdominal bloating, Change from Baseline, Mean ± SD (Week 24, 48 μg/day): −0.95 ± 1.102 (107)
- Abdominal bloating, Change from Baseline, Median (Week 24, 48 μg/day): −1.00
- Abdominal discomfort, Change from Baseline, Mean ± SD (Week 24, 48 μg/day): −0.82 ± 1.035 (107)
- Abdominal discomfort, Change from Baseline, Median (Week 24, 48 μg/day): −1.00
- Severity of Constipation, Change from Baseline, Mean ± SD (Week 24, 48 μg/day): −1.40 ± 1.036 (107)
- Severity of Constipation, Change from Baseline, Median (Week 24, 48 μg/day): −1.00
- Abdominal bloating, Mean ± SD (Week 24, 48 μg/day): 1.26 ± 0.915 (107)
- Abdominal bloating, Median (Week 24, 48 μg/day): 1.00
- Abdominal discomfort, Mean ± SD (Week 24, 48 μg/day): 1.09 ± 0.917 (107)
- Abdominal discomfort, Median (Week 24, 48 μg/day): 1.00
- Severity of Constipation, Mean ± SD (Week 24, 48 μg/day): 1.50 ± 0.965 (107)
- Severity of Constipation, Median (Week 24, 48 μg/day): 1.00
- Abdominal bloating, Change from Baseline, Mean ± SD (Week 36, 48 μg/day): −1.00 ± 1.134 (57)
- Abdominal bloating, Change from Baseline, Median (Week 36, 48 μg/day): −1.00
- Abdominal discomfort, Change from Baseline, Mean ± SD (Week 36, 48 μg/day): −0.77 ± 0.926 (57)
- Abdominal discomfort, Change from Baseline, Median (Week 36, 48 μg/day): −1.00
- Severity of Constipation, Change from Baseline, Mean ± SD (Week 36, 48 μg/day): −1.33 ± 1.123 (57)
- Severity of Constipation, Change from Baseline, Median (Week 36, 48 μg/day): −1.00
- Abdominal bloating, Mean ± SD (Week 36, 48 μg/day): 1.05 ± 0.854 (57)
- Abdominal bloating, Median (Week 36, 48 μg/day): 1.00
- Abdominal discomfort, Mean ± SD (Week 36, 48 μg/day): 0.93 ± 0.799 (57)
- Abdominal discomfort, Median (Week 36, 48 μg/day): 1.00
- Severity of Constipation, Mean ± SD (Week 36, 48 μg/day): 1.39 ± 0.921 (57)
- Severity of Constipation, Median (Week 36, 48 μg/day): 1.00
- Abdominal bloating, Change from Baseline, Mean ± SD (Week 48, 48 μg/day): −0.94 ± 0.802 (52)
- Abdominal bloating, Change from Baseline, Median (Week 48, 48 μg/day): −1.00
- Abdominal discomfort, Change from Baseline, Mean ± SD (Week 48, 48 μg/day): −0.81 ± 0.908 (52)
- Abdominal discomfort, Change from Baseline, Median (Week 48, 48 μg/day): −1.00
- Severity of Constipation, Change from Baseline, Mean ± SD (Week 48, 48 μg/day): −1.37 ± 1.095 (51)
- Severity of Constipation, Change from Baseline, Median (Week 48, 48 μg/day): −1.00
- Abdominal bloating, Mean ± SD (Week 48, 48 μg/day): 1.12 ± 0.832 (52)
- Abdominal bloating, Median (Week 48, 48 μg/day): 1.00
- Abdominal discomfort, Mean ± SD (Week 48, 48 μg/day): 0.87 ± 0.929 (52)
- Abdominal discomfort, Median (Week 48, 48 μg/day): 1.00
- Severity of Constipation, Mean ± SD (Week 48, 48 μg/day): 1.37 ± 0.894 (51)
- Severity of Constipation, Median (Week 48, 48 μg/day): 1.00
